In patent US20110136801A1, “Novel Compounds” (Dainippon Sumitomo Pharma Co. Ltd., priority 2009, published 2011):

Biological target: T1, human TLR7 (Homo sapiens, UniProt Q9NYK1)
T1 construct: expressed in transfected cells; host or cells: HEK293 cell line stably expressing the pNiFty2-SEAP reporter plasmid; TLR7 in pUNO vector, blasticidin selection
T1 sequence (Q9NYK1 27-1049): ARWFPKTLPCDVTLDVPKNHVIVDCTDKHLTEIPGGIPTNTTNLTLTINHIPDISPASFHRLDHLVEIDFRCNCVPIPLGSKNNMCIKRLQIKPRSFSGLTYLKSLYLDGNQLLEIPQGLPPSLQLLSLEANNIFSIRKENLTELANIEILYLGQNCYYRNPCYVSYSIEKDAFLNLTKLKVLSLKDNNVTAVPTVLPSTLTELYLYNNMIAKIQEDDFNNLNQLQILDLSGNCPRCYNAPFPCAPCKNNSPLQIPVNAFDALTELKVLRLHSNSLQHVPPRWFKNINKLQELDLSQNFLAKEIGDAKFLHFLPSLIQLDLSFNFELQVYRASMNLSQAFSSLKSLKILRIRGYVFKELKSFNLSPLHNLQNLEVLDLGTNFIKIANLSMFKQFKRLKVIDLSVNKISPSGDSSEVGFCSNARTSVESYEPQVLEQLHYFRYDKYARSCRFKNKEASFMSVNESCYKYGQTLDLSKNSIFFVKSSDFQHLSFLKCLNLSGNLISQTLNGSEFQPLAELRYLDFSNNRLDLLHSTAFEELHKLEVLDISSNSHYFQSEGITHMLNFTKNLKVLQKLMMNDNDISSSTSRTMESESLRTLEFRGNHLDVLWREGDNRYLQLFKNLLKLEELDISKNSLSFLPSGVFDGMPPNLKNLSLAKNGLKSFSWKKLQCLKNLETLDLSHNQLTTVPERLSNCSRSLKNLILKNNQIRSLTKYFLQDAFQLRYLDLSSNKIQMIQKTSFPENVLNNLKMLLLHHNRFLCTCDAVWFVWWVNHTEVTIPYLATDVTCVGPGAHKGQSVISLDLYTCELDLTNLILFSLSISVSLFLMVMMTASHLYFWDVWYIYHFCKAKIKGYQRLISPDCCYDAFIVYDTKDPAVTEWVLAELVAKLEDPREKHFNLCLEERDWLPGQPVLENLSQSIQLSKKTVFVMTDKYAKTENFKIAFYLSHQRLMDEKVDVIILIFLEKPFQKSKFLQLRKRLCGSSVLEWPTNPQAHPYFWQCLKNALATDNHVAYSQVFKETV
Experiment: Human TLR7 Assay (SEAP reporter in HEK293 cells);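 further: Read-out is secreted alkaline phosphatase made under an NFkB/ELAM-1 composite promoter, reporting TLR7-triggered NFkB activation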
Assay type: cell-based
Conditions: HEK293 cell line expressing human TLR7 and pNiFty2-SEAP reporter, overnight incubation at 37° C., 0.1% DMSO; read-out: hTLR7 EC50

Structure (SMILES) | EC50
CCOC(=O)COc1ccc(CN(CCCn2c(CCOC)nc3c(N)nc4ccccc4c32)C(=O)CN(CC)CC)cc1 [Example 37, Ethyl 2-{4-[(N-{3-[4-amino-2-(2-methoxyethyl)-1H-imidazo[4,5-c]quinolin-1-yl]propyl}-2-(diethylamino)acetamido)methyl]phenoxy}acetate] | 38.3 nM
CCOC(=O)C(C)(C)Oc1cccc(CN(CCCn2c(CCOC)nc3c(N)nc4ccccc4c32)C(=O)CN(CC)CC)c1 [Example 55, Ethyl 2-{3-[(N-{3-[4-amino-2-(2-methoxyethyl)-1H-imidazo[4,5-c]quinolin-1-yl]propyl}-2-{diethylamino}acetamido)methyl]phenoxy}-2-methylpropanoate] | 46.4 nM
CCOC(=O)COc1cccc(CN(CCCCn2c(CCOC)nc3c(N)nc4ccccc4c32)C(=O)CN(CC)CC)c1 [Example 44, Ethyl 2-{3-[(N-{4-[4-amino-2-(2-methoxyethyl)-1H-imidazo[4,5-c]quinolin-1-yl]butyl}-2-(diethylamino)acetamido)methyl]phenoxy}acetate] | 22.7 nM
CCN(CC)CC(=O)N(CCCn1c(CCOC)nc2c(N)nc3ccccc3c21)Cc1cccc(OCC(=O)OC2CCOCC2)c1 [Example 82, Tetrahydro-2H-pyran-4-yl 2-{3-[(N-{3-[4-amino-2-(2-methoxyethyl)-1H-imidazo[4,5-c]quinolin-1-yl]propyl}-2-{diethylamino}acetamido)methyl]phenoxy}acetate] | 115 nM
CCCCc1nc2c(N)nc3ccccc3c2n1CCCN(Cc1ccc(OCC(=O)OC)cc1)C(=O)CN1CCCCC1 [Example 6, Methyl (4-{[[3-(4-amino-2-butyl-1H-imidazo[4,5-c]quinolin-1-yl)propyl](piperidin-1-ylacetyl)amino]methyl}phenoxy)acetate] | 169 nM
COCCc1nc2c(N)nc3ccccc3c2n1CCCN(Cc1cccc(OCC(=O)OC)c1)C(=O)CN(C)C [Example 17, Methyl (3-{[[3-(4-amino-2-(2-methoxyethyl)-1H-imidazo[4,5-c]quinolin-1-yl)propyl](N,N-dimethylglycyl)amino]methyl}phenoxy)acetate] | 349 nM
CCN(CC)CC(=O)N(CCCn1c(CCOC)nc2c(N)nc3ccccc3c21)Cc1cccc(OC(C)C(=O)OC)c1 (centres unmarked) [Example 51, Methyl 2-{3-[(N-{3-[4-amino-2-(2-methoxyethyl)-1H-imidazo[4,5-c]quinolin-1-yl]propyl}-2-{diethylamino}acetamido)methyl]phenoxy}propanoate] | 42.6 nM
CCCCc1nc2c(N)nc3ccccc3c2n1CCCN(Cc1ccc(OCC(=O)OC)cc1)C(=O)CN1CCN(C)CC1 [Example 7, Methyl [4-({[3-(4-amino-2-butyl-1H-imidazo[4,5-c]quinolin-1-yl)propyl][(4-methylpiperazin-1-yl)acetyl]amino}methyl)phenoxy]acetate] | 633 nM
CCOC(=O)C(C)(C)Oc1cccc(CN(CCCCn2c(CCOC)nc3c(N)nc4ccccc4c32)CCN(C)C)c1 [Example 134, Ethyl 2-{3-[({4-[4-amino-2-(2-methoxyethyl)-1H-imidazo[4,5-c]quinolin-1-yl]butyl}{2-(dimethylamino)ethyl}amino)methyl]phenoxy}-2-methylpropanoate] | 20.9 nM
CCN(CC)CC(=O)N(CCCn1c(CCOC)nc2c(N)nc3ccccc3c21)Cc1ccc(OC)c(OCC(=O)OC(C)C)c1 [Example 72, Isopropyl 2-{5-[(N-{3-[4-amino-2-(2-methoxyethyl)-1H-imidazo[4,5-c]quinolin-1-yl]propyl}-2-{diethylamino}acetamido)methyl]-2-methoylphenoxy}acetate] | 55.8 nM
CCC(Oc1cccc(CN(CCCn2c(CCOC)nc3c(N)nc4ccccc4c32)C(=O)CN(CC)CC)c1)C(=O)OC (centres unmarked) [Example 70, Methyl 2-{3-[(N-{3-[4-amino-2-(2-methoxyethyl)-1H-imidazo[4,5-c]quinolin-1-yl]propyl}-2-{diethylamino}acetamido)methyl]phenoxy}butanoate] | 25.9 nM
CCN(C)CC(=O)N(CCCn1c(CCOC)nc2c(N)nc3ccccc3c21)Cc1cccc(OC(C)(C)C(=O)OC)c1 [Example 151, Methyl 2-{3-[(N-{3-[4-amino-2-(2-methoxyethyl)-1H-imidazo[4,5-c]quinolin-1-yl]propyl}-2-{ethyl(methyl)amino}acetamido)methyl]phenoxy}-2-methylpropanoate] | 82 nM
CCOC(=O)COc1cccc(CN(CCCn2c(CCOC)nc3c(N)nc4ccccc4c32)C(=O)CN2CCCCC2)c1 [Example 32, Ethyl 2-{3-[(N-{3-[4-amino-2-(2-methoxyethyl)-1H-imidazo[4,5-c]quinolin-1-yl]propyl}-2-(piperidin-1-yl)acetamido)methyl]phenoxy}acetate] | 177 nM
CCCCc1nc2c(N)nc3ccccc3c2n1CCCN(Cc1cccc(OCC(=O)OC(C)C)c1F)C(=O)CN(CC)CC [Example 164, Isopropyl 2-[3-({N-[3-(4-amino-2-butyl-1H-imidazo[4,5-c]quinolin-1-yl)propyl]-2-(diethylamino)acetamido}methyl)-2-fluorophenoxy]acetate] | 158 nM
CCN(C)CC(=O)N(CCCn1c(CCOC)nc2c(N)nc3ccccc3c21)Cc1cccc(OCC(=O)OC2CCCC2)c1 [Example 111, Cyclopentyl 2-{3-[(N-{3-[4-amino-2-(2-methoxyethyl)-1H-imidazo[4,5-c]quinolin-1-yl]propyl}-2-{ethyl(methyl)amino}acetamido)methyl]phenoxy}acetate] | 123 nM
CCN(CC)CC(=O)N(CCCn1c(CCOC)nc2c(N)nc3ccccc3c21)Cc1ccc(OCC(=O)OC)cc1 [Example 36, Methyl 2-{4-[(N-{3-[4-amino-2-(2-methoxyethyl)-1H-imidazo[4,5-c]quinolin-1-yl]propyl}-2-(diethylamino)acetamido)methyl]phenoxy}acetate] | 84.5 nM
CCN(CC)CC(=O)N(CCCn1c(CCOC)nc2c(N)nc3ccccc3c21)Cc1cccc(OCC(=O)OC(C)C)c1C [Example 147, Isopropyl 2-{3-[(N-{3-[4-amino-2-(2-methoxyethyl)-1H-imidazo[4,5-c]quinolin-1-yl]propyl}-2-{diethylamino}acetamido)methyl]-2-methylphenoxy}acetate] | 183 nM
COCCc1nc2c(N)nc3ccccc3c2n1CCCN(Cc1ccc(OC)c(OCC(=O)OC(C)C)c1)C(=O)CN(C)C [Example 75, Isopropyl 2-{5-[(N-{3-[4-amino-2-(2-methoxyethyl)-1H-imidazo[4,5-c]quinolin-1-yl]propyl}-2-{dimethylamino}acetamido)methyl]-2-methoxyphenoxy}acetate] | 405 nM
CCOC(=O)COc1cccc(CN(CCCCn2c(CCOC)nc3c(N)nc4ccccc4c32)C(=O)NCCCN(C)C)c1 [Example 129, Ethyl 2-{3-[(1-{4-[4-amino-2-(2-methoxyethyl)-1H-imidazo[4,5-c]quinolin-1-yl]butyl}-3-{3-(dimethylamino)propyl}ureido)methyl]phenoxy}acetate] | 204 nM
COCCc1nc2c(N)nc3ccccc3c2n1CCCNCc1cccc(OCC(=O)OC)c1 [Example 15, Methyl (3-{[[3-(4-amino-2-(2-methoxyethyl)-1H-imidazo[4,5-c]quinolin-1-yl)propyl]amino]methyl}phenoxy)acetate] | 181 nM
